Test results as given in patent CN103483288A, “一类3,4-二氯异噻唑双酰肼类化合物及其制备方法和用途” (priority 2013, dated 2014).
Where two headings read alike, the source gives them in different places.

Experiments:
Type in all cases: in vivo
[1] = tested on: tobacco mosaic virus (烟草花叶病毒(TMV)); assay: 直接抗TMV活性, 半叶法; details: for inhibition at 100 µg/mL: Tobacco mosaic virus
[2] = tested on: tobacco mosaic virus (烟草花叶病毒(TMV)); assay: 诱导烟草抗TMV活性 (活体诱导); details: for inhibition at 100 µg/mL: Tobacco mosaic virus, read-out: antiviral activity (inhibition rate): induction activity
diamondback moth (小菜蛾) = assay: 小菜蛾杀虫活性, 叶片药膜法; details: for mortality at 200 µg/mL: Plutella xylostella, read-out: kill rate
[3] = TMV, 100 mg/L, read-out: antiviral activity (inhibition rate): curative activity
[4] = TMV, 100 mg/L, read-out: antiviral activity (inhibition rate): inactivation activity
[5] = TMV, 100 mg/L, read-out: antiviral activity (inhibition rate): protective activity
[6] = induced resistance of tobacco to TMV, 100 mg/L
[7] = induced resistance of tobacco to TMV
[8] = 200 mg/L, 2nd instar larvae, 96 h or 120 h

Row | Structure (SMILES) | inhibition at 100 µg/mL [1, 3] | inhibition at 100 µg/mL [1, 4] | inhibition at 100 µg/mL [1, 5] | inhibition at 100 µg/mL [2, 6] | induction activity (in words) [2, 7] | kill rate (diamondback moth (小菜蛾); [8]) | direct antiviral activity (in words) ([1]; TMV) | other results
1 | Cc1ccc(NC(=O)c2snnc2C)cc1Cl [TDL, 噻酰菌胺] | 23.5 ± 4.41% | 20.5 ± 3.88% | 20.1 ± 6.41% | 47.5 ± 3.75% | 具有很好的诱导烟草产生对TMV的抗性 |  |  | antiviral activity (inhibition rate): induction activity [2, 6]: 47%
2 | O=[N+]([O-])NC1=NCCN1Cc1ccc(Cl)nc1 [吡虫啉] |  |  |  |  |  | 0% |  | mortality at 200 µg/mL (diamondback moth (小菜蛾)): 0%
3 | CNCC(=O)NC(CO)C(=O)NC1C(C(N)=O)OC(n2ccc(N)nc2=O)C(O)C1O (stereo not shown) [宁南霉素] |  |  |  |  | 几乎没有诱导活性 |  | 具有很好的直接抗病毒活性 | inhibition at 100 µg/mL ([1]; read-out: antiviral activity (inhibition rate): curative activity): 41.7 ± 2.25%; inhibition at 100 µg/mL ([1]; read-out: antiviral activity (inhibition rate): inactivation activity): 43.1 ± 4.07%; inhibition at 100 µg/mL ([1]; read-out: antiviral activity (inhibition rate): protective activity): 42.9 ± 1.59%; inhibition at 100 µg/mL [2]: 25 ± 3.75%
4 | CNC(=O)c1cc(Cl)cc(C)c1NC(=O)c1cc(Br)nn1-c1ncccc1Cl [氯虫苯甲酰胺] |  |  |  |  |  | 100% |  | mortality at 200 µg/mL (diamondback moth (小菜蛾); [8]): 100%
5 | NC(=O)c1ncn([C@@H]2O[C@H](CO)[C@@H](O)[C@H]2O)n1 [病毒唑] | 44.1 ± 2.94% | 25.6 ± 3.87% | 46 ± 4.2% | 27.1 ± 4.39% | 几乎没有诱导活性 |  | 具有很好的直接抗病毒活性 | 
